Assay results taken from publication PMC7216583 (Parasites & Vectors, 2020).
Structures can show the parent of a compound that is named as a salt.

Columns and labels:
[1] = tested on: Toxoplasma gondii RH-2F tachyzoites; test: microbe, parasite or virus in culture; conditions: 72 h, read-out: Parasite inhibition (%) mean, preliminary screen of compound library, mean
[2] = biological target: muscarinic receptor; design: method as in S-inhibitor catalog; conditions: vendor brief description; ref S-inhibitor catalog; read-out: Kb, muscarinic receptor antagonist; cited from earlier work
[3] = biological target: PKA; design: method as in S-inhibitor catalog; conditions: vendor brief description; ref S-inhibitor catalog; cited from earlier work
[4] = tested on: Plk1; design: method as in S-inhibitor catalog; conditions: vendor brief description; ref S-inhibitor catalog; cited from earlier work
[5] = tested on: p110α; design: method as in S-inhibitor catalog; conditions: vendor brief description; ref S-inhibitor catalog; cited from earlier work
[6] = biological target: HIV-1 gp120 / CD4 receptor; design: method as in S-inhibitor catalog; conditions: in virus; vendor brief description; ref S-inhibitor catalog; read-out: EC50, inhibition of binding of HIV-1 gp120 to CD4 receptor; cited from earlier work
[7] = tested on: Akt2; design: method as in S-inhibitor catalog; conditions: vendor brief description; ref S-inhibitor catalog; cited from earlier work
[8] = biological target: hydroxymethylglutaryl coenzyme A reductase (HMGCR); design: method as in S-inhibitor catalog; conditions: vendor brief description; ref S-inhibitor catalog; cited from earlier work
[9] = tested on: H14 cell line; design: method as in S-inhibitor catalog; conditions: vendor brief description; ref S-inhibitor catalog; read-out: IC50, inhibition of growth of H14; cited from earlier work
[10] = tested on: MDA-MB-435 cell line; design: method as in S-inhibitor catalog; conditions: vendor brief description; ref S-inhibitor catalog; read-out: IC50, inhibition of growth of MDA-MB-435; cited from earlier work
[11] = tested on: HeLa cell line; design: method as in S-inhibitor catalog; conditions: vendor brief description; ref S-inhibitor catalog; read-out: IC50, inhibition of growth of HeLa; cited from earlier work
[12] = tested on: HL60 cell line; design: method as in S-inhibitor catalog; conditions: vendor brief description; ref S-inhibitor catalog; read-out: IC50, inhibition of growth of HL60; cited from earlier work
[13] = tested on: hERG K+ channel; conditions: cited from earlier work
[14] = tested on: PDE4B; design: method as in S-inhibitor catalog; conditions: vendor brief description; ref S-inhibitor catalog; cited from earlier work
[15] = tested on: MEK2; design: method as in S-inhibitor catalog; conditions: vendor brief description; ref S-inhibitor catalog; cited from earlier work
[16] = biological target: p110β; design: method as in S-inhibitor catalog; conditions: vendor brief description; ref S-inhibitor catalog; cited from earlier work
[17] = tested on: LXRα-GAL4; design: method as in S-inhibitor catalog; conditions: vendor brief description; ref S-inhibitor catalog; cited from earlier work
[18] = tested on: LXRα/SRC1; design: method as in S-inhibitor catalog; conditions: vendor brief description; ref S-inhibitor catalog; read-out: EC50, LXRα/SRC1 LiSA; cited from earlier work
[19] = tested on: ALK3; design: method as in S-inhibitor catalog; conditions: vendor brief description; ref S-inhibitor catalog; cited from earlier work
[20] = tested on: ALK2; design: method as in S-inhibitor catalog; conditions: vendor brief description; ref S-inhibitor catalog; cited from earlier work

For `CC(C)N(CC[C@H](c1ccccc1)c1cc(CO)ccc1O)C(C)C` [5-hydroxymethyl tolterodine (PNU 200577)], the inhibition of growth at 5 µM [1] is given as -18.8% and the Kb [2] is given as 0.84 nM.

For `Cc1n[nH]c2ccc(-c3cncc(OC[C@@H](N)Cc4ccccc4)c3)cc12` [A-674563], the inhibition of growth at 5 µM [1] is given as 67.7% and the Ki [3] is given as 16 nM.

For `CC[C@@H]1C(=O)N(C)c2cnc(Nc3ccc(C(=O)N[C@H]4CC[C@H](N5CCN(CC6CC6)CC5)CC4)cc3OC)nc2N1C(C)C` [BI6727 (Volasertib)], the inhibition of growth at 5 µM [1] is listed as 0.8% and the IC50 [4] is listed as 0.87 nM.

For `Nc1cc(C(F)(F)F)c(-c2cc(N3CCOCC3)nc(N3CCOCC3)n2)cn1` [BKM120 (NVP-BKM120)], the inhibition of growth at 5 µM [1] is given as 41.3% and the IC50 [5] is given as […].

In the case of `COc1cc[nH]c2ncc(C(=O)C(=O)N3CCN(C(=O)c4ccccc4)C[C@H]3C)c1-2` [BMS-806 (BMS 378806)], the inhibition of growth at 5 µM [1] is given as 0.3% and the EC50 [6] is given as 0.85 to 26.5 nM.

For `NC1(Cc2ccc(Cl)cc2)CCN(c2ncnc3[nH]ccc23)CC1` [CCT128930], the inhibition of growth at 5 µM [1] is listed as -25.6% and the IC50 [7] is listed as […].

In the case of `CCC(C)(Oc1ccc(C2(c3ccc(OC(C)(CC)C(=O)O)cc3)CCCCC2)cc1)C(=O)O` (stereo not drawn) [Clinofibrate], the inhibition of growth at 5 µM [1] is given as 0.1% and the IC50 [8] is given as 470000 nM.

In the case of `C[C@@H]1CC[C@@]2(OC1)O[C@H]1C[C@H]3[C@@H]4CC=C5C[C@H](O[C@@H]6O[C@@H](CO)[C@@H](O[C@@H]7O[C@@H](C)[C@H](O)[C@@H](O)[C@@H]7O)[C@H](O)[C@H]6O[C@@H]6O[C@@H](C)[C@H](O)[C@@H](O)[C@H]6O)CC[C@]5(C)[C@@H]4CC[C@]3(C)[C@@H]1[C@H]2C` [Dioscin (Collettiside III)], the inhibition of growth at 5 µM [1] is given as 4.8%, the IC50 [9] is given as 800 nM and the IC50 [10] is given as 2600 nM. The IC50 [11] was 4500 nM and the IC50 [12] was 7500 nM.

For `CC1=NN(c2ccc(C)c(C)c2)C(=O)/C1=N/Nc1cccc(-c2cccc(C(=O)O)c2)c1O` [Eltrombopag (SB-497115-GR)], the inhibition of growth at 5 µM [1] is listed as 0.7% and the IC50 [13] is listed as 690 nM.

For `COc1cccc(Nc2c(C(N)=O)cnc3c(C)cc(S(=O)(=O)c4cccc(C(=O)N(C)C)c4)cc23)c1` [GSK256066], the inhibition of growth at 5 µM [1] is listed as 18.7% and the IC50 [14] is listed as 0.0032 nM.

In the case of `CC(=O)Nc1cccc(-n2c(=O)n(C3CC3)c(=O)c3c(Nc4ccc(I)cc4F)n(C)c(=O)c(C)c32)c1` [GSK1120212 (Trametinib)], the inhibition of growth at 5 µM [1] is listed as -8.7% and the IC50 [15] is listed as […].

In the case of `COc1ncc(-c2ccc3nccc(-c4ccnnc4)c3c2)cc1NS(=O)(=O)c1ccc(F)cc1F` [GSK2126458], the Ki [16] is given as […] and the inhibition of growth at 5 µM [1] is given as 21.3%.

In the case of `O=C(O)Cc1cccc(OCCCN(Cc2cccc(C(F)(F)F)c2Cl)CC(c2ccccc2)c2ccccc2)c1` [GW3965 HCl], the inhibition of growth at 5 µM [1] is listed as -20.1%, the EC50 [17] is listed as 190 nM and the EC50 [18] is listed as 125 nM.

For `c1ccc2c(-c3cnn4cc(-c5ccc(N6CCNCC6)cc5)cnc34)ccnc2c1` [LDN193189], the inhibition of growth at 5 µM [1] is listed as 21.7%, the IC50 [19] is listed as […] and the IC50 [20] is listed as […].
